The text below walks through data of US20240156790A1, “COMPOUNDS, COMPOSITIONS, AND METHODS FOR MODULATING FERROPTOSIS AND TREATING EXCITOTOXIC DISORDERS” (THE TRUSTEES OF COLUMBIA UNIVERSITY IN THE CITY OF NEW YORK, priority 2018, published 2024).

A short description of series [1]: Microsomal stability, human liver microsomes (Table 1). Type of series: in vitro ADME. The note with it: liver microsomes; Human: Pooled, 50 donors; read-out: Microsomal Stability t1/2 (converted). Background: Liver microsomes are a subcellular fraction often used to study metabolism.
The nature of series [2]: Plasma stability, human (Table 1). Type of series: in vitro ADME.
Series [3] can be described thus: Plasma stability, pig (Table 1). Type of series: in vitro ADME.
The conditions of series [4]: Mouse; value marked ^1, Hofmans et al., 2016; cited from earlier work.
Series [5] is described as follows: PHB4082 IP PK Study (plasma, brain, liver, kidney). In kind it is in vivo, C57BL/6 mice. Here is the method:
C57BL/6 mice (8-weeks of age and ˜25 g weight) were weighed before injection and divided into groups of two male and female mice per cage. PHB4082 was dissolved in 5% DMSO/95% of 65% v/v of 25% w/v 2-hydroxypropyl-3-cyclodextrin (Cayman Chemical) dissolved in 20% EtOH, 30% v/v Poly(ethylene glycol)-400 (Sigma Aldrich 202398), 5% v/v Tween 80 (Fluka 59924) to create a 2 mg/mL Solution. The same formulation without PHB4082 was used as a vehicle control. The solution was sterilized using a […] Steriflip filter unit (Thomas Scientific 1189Q46) and stored at 4° C. Mice were dosed IP and euthanized by CO2 asphyxiation for 3 min at 0, 1, 2, 4, and 8 h after administration. To ensure that the vehicle was well-tolerated, four mice were treated with vehicle and euthanized 4 h after administration. ˜0.5 mL of blood was collected via cardiac puncture and immediately put in K3 EDTA microtubes ([…] 41.1504.105) and kept on ice. Organs were harvested, placed in Eppendorf tubes, and frozen on dry ice. Blood samples were centrifuged for 10 min at 2,100×g at 4° C., then plasma was transferred to a clean tube and frozen on dry ice. Organ samples were weighed and placed in hard tissue homogenizing tubes (Omni International 19-628) and a volume of DEPC-treated nuclease-free water (IBI Scientific IB42200) was added to make a 500 mg/mL solution and homogenized using the Omni Bead Ruptor 4 at speed 5 for 30 seconds. PHB4082 was extracted from plasma or organ homogenate by adding 900 μL acetonitrile to 100 μL plasma or organ homogenate. Samples were mixed by vortexing and allowed to extract overnight at 4° C. prior to mixing for at least 5 min by rotating at room temperature, vortexing, and sonicating for at least 30 second prior to centrifugation for 10 min at 4,000×g and 4° C. The supernatant was then transferred to a glass vial and dried under nitrogen. After drying, the samples were resuspended in 100 μL of methanol and analyzed by UPLC-MS described below. The concentration of PHB4082 was determined against a standard curve with a linear fit and the data plot in GraphPad Prism 9 and fit with a one phase decay.
To evaluate whether PHB4082 was a suitable candidate for in vivo studies, we performed a pharmacokinetic study of PHB4082 in C57BL/6 mice at ˜8 weeks of age. To evaluate sex-specific effects on compound metabolism, two male and two female mice were used for each condition. Mice were dosed at 20 mg/kg via intraperitoneal (IP) injection and the injection volume ranged from 180 uL to 300 uL based on different body weights. […] Extracts were analyzed via UPLC-MS and the concentration of compound determined against a standard curve ran concurrently with samples.

The nature of series [6]: PHB4082 IP, IV Study (cyclodextrin/PEG/tween vehicle). The note with it: both sexes, C57BL/6, mouse; for concentration at 2 h / concentration at 4 h: 10 mg/kg. Type of series: in vivo, C57BL/6 mice. Here is the method: C57BL/6 mice (8-weeks of age and ˜25 g weight) were weighed before injection and divided into groups of two male and female mice per cage. PHB4082 was dissolved in 5% DMSO/95% of 1:1 [(65% v/v of 25% w/v 2-hydroxypropyl-3-cyclodextrin (Cayman Chemical) dissolved in 20% EtOH, 30% v/v Poly(ethylene glycol)-400 (Sigma Aldrich 202398), 5% v/v Tween 80 (Fluka 59924)):MilliQ water] to create a 2 mg/mL solution. The same formulation without PHB4082 was used as a vehicle control. The solution was sterilized using a […] Steriflip filter unit (Thomas Scientific 1189Q46). Mice were dosed IP, and IV routes of administration and euthanized by CO2 asphyxiation for 3 min at 2 and 4 h after administration. To ensure that the vehicle was well-tolerated, four mice for each timepoint were treated with vehicle and euthanized 4 h and 24 h after administration. ˜0.5 mL of blood was collected via cardiac puncture and immediately put in K3 EDTA microtubes ([…] 41.1504.105) and kept on ice. Organs were harvested, placed in Eppendorf tubes, and frozen on dry ice. Blood samples were centrifuged for 10 min at 2,100×g at 4° C., then plasma was transferred to a clean tube and frozen on dry ice. Organ samples were weighed and placed in hard tissue homogenizing tubes (Omni International 19-628) and a volume of DEPC-treated nuclease-free water (IBI Scientific IB42200) was added to make a 500 mg/mL solution and homogenized using the Omni Bead Ruptor 4 at speed 5 for 30 seconds. Compound was extracted from plasma or organ homogenate by adding 900 μL acetonitrile to 100 μL plasma or organ homogenate. Samples were mixed by vortexing and allowed to extract overnight at 4° C. prior to mixing for at least 5 min by rotating at room temperature, vortexing, and sonicating for at least 30 second prior to centrifugation for 10 min at 4,000×g and 4° C. The supernatant was then transferred to a glass vial and analyzed by UPLC-MS described below. The base peak chromatogram was integrated and quantified by standard curve concurrently ran.
To determine whether PHB4082 accumulated in brain preferentially over plasma, the log10(Brain/Plasma) ratio was calculated for each time-point with a log10(Brain/Plasma) >0 indicating preferential accumulation in brain over plasma. We observed that PHB4082 did slightly accumulate in brain over plasma as time progressed (FIG. 21B); however, at the time-point where PHB4082 preferentially accumulated in brain, the difference in concentration in the brain compared to plasma was low, indicated by the near 0 log values.

Where [7] appears, read: brain, IP Administration, read-out: [PHB4082]brain.
The mark [8] stands for this setting: brain, IV Administration, read-out: [PHB4082]brain.
[9] abbreviates: plasma, IP Administration, read-out: [PHB4082]plasma.
Setting [10] is: plasma, IV Administration, read-out: [PHB4082]plasma.

Like-named read-outs stand apart in the source and are kept apart here.

With `CCOC(=O)c1ccc(NC2CCCCC2)c(N)c1` [Fer-1, Ferrostatin-1, reference compound], in series [1], the half-life was 11.4 min. For the same molecule, the entries for the “Plasma Stability at six hours (% remaining)” value in series [2] and in series [3] were 100% and “Pig: 100%”, respectively. In addition, in series [4], the “Microsomal Stability t1/2” value is reported as 1.9 ± 0.6 min.

Regarding `Cc1noc(-c2ccc(NC3CCCCC3)c(NC3CCCCC3)c2)n1` [PHB4082, N1,N2-dicyclohexyl-4-(3-methyl-1,2,4-oxadiazol-5-yl)benzene-1,2-diamine], the “accumulation in plasma and brain” value in series [5] (20 mg/kg IP) is approximately 100 nM. Moreover, the “tissue accumulation, in words” value in series [5] (IP) is “stably accumulates in mouse kidney with minimal accumulation observed in brain”. The concentration in brain result in series [5] (PK study of PHB4082) is reported as “around 200 nM”. This molecule came in with a concentration at 8 h in series [5] (both sexes, C57BL/6, mouse, kidney, intraperitoneal, 20 mg/kg IP, at eight hours) of 1.8 µM. Further, in series [6] (brain and plasma, other: intraperitoneally and intravenously, 10 mg/kg intraperitoneally and intravenously), the log10 Kp (brain/plasma) is less than 0. Moreover, the concentration at 2 h turned out to be 0.114 ± 0.021 µM in series [6] (setting [7]), 0.557 ± 0.245 µM in series [6] (setting [8]), 0.634 ± 0.359 µM in series [6] (setting [10]) and 0.957 ± 0.693 µM in series [6] (setting [9]). Moreover, the concentration at 4 h is 0.099 ± 0.062 µM in series [6] (setting [7]), 0.176 ± 0.076 µM in series [6] (setting [8]), 0.306 ± 0.379 µM in series [6] (setting [9]) and 0.281 ± 0.284 µM in series [6] (setting [10]).
